Measured values taken from ChEMBL document CHEMBL1137136, “Change in liver and plasma ceramides during D-galactosamine-induced acute hepatic injury by LC-MS/MS” (2004).
“And” between values parts separate entries of the source, which are not always exact repeats. Equal entries are not always repeated.

Assays:
Assay type in all cases: functional
[1] = test system: Rattus norvegicus; experiment: Plasma GPT level was observed after 18 hr of D-galactosamine administration at 1 g/kg intraperitoneally
[2] = test system: Rattus norvegicus; experiment: Plasma GPT level was observed after 24 hr of D-galactosamine administration at 1 g/kg intraperitoneally
[3] = test system: Rattus norvegicus; experiment: Concentration of C24:1 ceramide in plasma of D-galactosamine treated rats after 18 hr at dose of 1 g/kg intraperitoneally
[4] = test system: Rattus norvegicus; experiment: Concentration of C24:2 ceramide in liver of D-galactosamine treated rats after 18 hr at dose of 1 g/kg intraperitoneally
[5] = test system: Rattus norvegicus; experiment: Concentration of C18:0 ceramide in plasma of D-galactosamine treated rats after 18 h at dose of 1 g/kg intraperitoneally
[6] = test system: Rattus norvegicus; experiment: Concentration of C24:0 ceramide in plasma of D-galactosamine treated rats after 24 hr at dose of 1 g/kg intraperitoneally
[7] = test system: Rattus norvegicus; experiment: Concentration of C24:1 ceramide in liver of D-galactosamine treated rats after 18 hr at dose of 1 g/kg intraperitoneally
[8] = test system: Rattus norvegicus; experiment: Concentration of C18:0 ceramide in liver of D-galactosamine treated rats after 24 hr at dose of 1 g/kg intraperitoneally
[9] = test system: Rattus norvegicus; experiment: Concentration of C22:0 ceramide in liver of D-galactosamine treated rats after 24 hr at dose of 1 g/kg intraperitoneally
[10] = test system: Rattus norvegicus; experiment: Concentration of C22:1 ceramide in liver of D-galactosamine treated rats after 18 hr at dose of 1 g/kg intraperitoneally
[11] = test system: Rattus norvegicus; experiment: Concentration of C24:1 ceramide in liver of D-galactosamine treated rats after 24 hr at dose of 1 g/kg intraperitoneally
[12] = test system: Rattus norvegicus; experiment: Concentration of C16:0 ceramide in liver of D-galactosamine treated rats after 24 hr at dose of 1 g/kg intraperitoneally
[13] = test system: Rattus norvegicus; experiment: Concentration of C24:1 ceramide in plasma of D-galactosamine treated rats after 24 hr at dose of 1 g/kg intraperitoneally
[14] = test system: Rattus norvegicus; experiment: Concentration of C16:0 ceramide in plasma of D-galactosamine treated rats after 18 h at dose of 1 g/kg intraperitoneally
[15] = test system: Rattus norvegicus; experiment: Concentration of C18:0 ceramide in plasma of D-galactosamine treated rats after 24 hr at dose of 1 g/kg intraperitoneally
[16] = test system: Rattus norvegicus; experiment: Concentration of C24:2 ceramide in liver of D-galactosamine treated rats after 24 hr at dose of 1 g/kg intraperitoneally
[17] = test system: Rattus norvegicus; experiment: Concentration of C18:0 ceramide in liver of D-galactosamine treated rats after 18 hr at dose of 1 g/kg intraperitoneally
[18] = test system: Rattus norvegicus; experiment: Concentration of C22:1 ceramide in plasma of D-galactosamine treated rats after 18 hr at dose of 1 g/kg intraperitoneally
[19] = test system: Rattus norvegicus; experiment: Concentration of C24:0 ceramide in liver of D-galactosamine treated rats after 18 hr at dose of 1 g/kg intraperitoneally
[20] = test system: Rattus norvegicus; experiment: Concentration of C24:2 ceramide in plasma of D-galactosamine treated rats after 18 hr at dose of 1 g/kg intraperitoneally
[21] = test system: Rattus norvegicus; experiment: Concentration of C22:0 ceramide in liver of D-galactosamine treated rats after 18 hr at dose of 1 g/kg intraperitoneally
[22] = test system: Rattus norvegicus; experiment: Concentration of C20:0 ceramide in plasma of D-galactosamine treated rats after 18 hr at dose of 1 g/kg intraperitoneally
[23] = test system: Rattus norvegicus; experiment: Plasma GOT level was observed after 18 hr of D-galactosamine administration at 1 g/kg intraperitoneally
[24] = test system: Rattus norvegicus; experiment: Concentration of C24:0 ceramide in plasma of D-galactosamine treated rats after 18 hr at dose of 1 g/kg intraperitoneally
[25] = test system: Rattus norvegicus; experiment: Concentration of C24:0 ceramide in liver of D-galactosamine treated rats after 24 hr at dose of 1 g/kg intraperitoneally
[26] = test system: Rattus norvegicus; experiment: Concentration of C22:2 ceramide in plasma of D-galactosamine treated rats after 18 hr at dose of 1 g/kg intraperitoneally
[27] = test system: Rattus norvegicus; experiment: Concentration of C20:0 ceramide in plasma of D-galactosamine treated rats after 24 hr at dose of 1 g/kg intraperitoneally
[28] = test system: Rattus norvegicus; experiment: Concentration of C16:0 ceramide in liver of D-galactosamine treated rats after 18 hr at dose of 1 g/kg intraperitoneally
[29] = test system: Rattus norvegicus; experiment: Concentration of C20:0 ceramide in liver of D-galactosamine treated rats after 18 h at dose of 1 g/kg intraperitoneally
[30] = test system: Rattus norvegicus; experiment: Concentration of C22:1 ceramide in liver of D-galactosamine treated rats after 24 hr at dose of 1 g/kg intraperitoneally
[31] = test system: Rattus norvegicus; experiment: Concentration of C20:0 ceramide in liver of D-galactosamine treated rats after 24 hr at dose of 1 g/kg intraperitoneally
[32] = test system: Rattus norvegicus; experiment: Concentration of C22:2 ceramide in liver of D-galactosamine treated rats after 18 hr at dose of 1 g/kg intraperitoneally
[33] = test system: Rattus norvegicus; experiment: Concentration of C22:2 ceramide in liver of D-galactosamine treated rats after 24 hr at dose of 1 g/kg intraperitoneally
[34] = test system: Rattus norvegicus; experiment: Plasma GOT level was observed after 24 hr of D-galactosamine administration at 1 g/kg intraperitoneally
[35] = test system: Rattus norvegicus; experiment: Concentration of C16:0 ceramide in plasma of D-galactosamine treated rats after 24 hr at dose of 1 g/kg intraperitoneally
[36] = test system: Rattus norvegicus; experiment: Concentration of C22:2 ceramide in plasma of D-galactosamine treated rats after 24 hr at dose of 1 g/kg intraperitoneally

## N[C@H]1C(O)O[C@H](CO)[C@@H](O)[C@@H]1O (stereo partly specified) [GLUCOSAMINE]
[1]
  Activity: 1208 Karmen
[2]
  Activity: 7280 Karmen
[3]
  Activity: 5.78 nmol/g tissue
[4]
  Activity: 12.4 nmol/g tissue
[5]
  Activity: 0.18 nmol/g tissue
[6]
  Activity: 26.31 nmol/g tissue
[7]
  Activity: 59.6 nmol/g tissue
[8]
  Activity: 11.5 nmol/g tissue
[9]
  Activity: 35.6 nmol/g tissue
[10]
  Activity: 4.6 nmol/g tissue
[11]
  Activity: 67.2 nmol/g tissue
[12]
  Activity: 36.2 nmol/g tissue
[13]
  Activity: 13.83 nmol/g tissue
[14]
  Activity: 1.06 nmol/g tissue
[15]
  Activity: 0.9 nmol/g tissue
[16]
  Activity: 12.4 nmol/g tissue
[17]
  Activity: 11.1 nmol/g tissue
[18]
  Activity: 5.45 nmol/g tissue
[19]
  Activity: 173.7 nmol/g tissue
[20]
  Activity: 0.98 nmol/g tissue and 1.94 nmol/g tissue
[21]
  Activity: 37.8 nmol/g tissue
[22]
  Activity: 0.42 nmol/g tissue
[23]
  Activity: 2516 Karmen
[24]
  Activity: 6.31 nmol/g tissue
[25]
  Activity: 166.3 nmol/g tissue
[26]
  Activity: 2.57 nmol/g tissue
[27]
  Activity: 0.65 nmol/g tissue
[28]
  Activity: 43.9 nmol/g tissue
[29]
  Activity: 3.9 nmol/g tissue
[30]
  Activity: 7.1 nmol/g tissue
[31]
  Activity: 5.6 nmol/g tissue
[32]
  Activity: 4.8 nmol/g tissue
[33]
  Activity: 7 nmol/g tissue
[34]
  Activity: 18480 Karmen
[35]
  Activity: 3.13 nmol/g tissue
[36]
  Activity: 2.33 nmol/g tissue
